Data from ChEMBL document CHEMBL4507289, “Data for DCP probe GSM1” (2021).

What was measured:
[1] = tested on: Receptor-type tyrosine-protein kinase FLT3 (Homo sapiens), P36888 [UNDEFINED MUTATION]; settings: Compound concentration 1000.0 nM
[2] = molecular target: Serine/threonine-protein kinase MARK2 (Homo sapiens) (UniProt Q7KZI7); settings: Compound concentration 1000.0 nM
[3] = molecular target: Tyrosine-protein kinase JAK3 (Homo sapiens) (UniProt P52333); settings: Compound concentration 1000.0 nM
[4] = molecular target: Dual specificity protein kinase TTK (Homo sapiens) (UniProt P33981); settings: Compound concentration 1000.0 nM
[5] = molecular target: Serine/threonine-protein kinase pim-2 (Homo sapiens) (UniProt Q9P1W9); settings: Compound concentration 1000.0 nM
[6] = molecular target: Serine/threonine-protein kinase Nek7 (Homo sapiens) (UniProt Q8TDX7); settings: Compound concentration 1000.0 nM
[7] = molecular target: Casein kinase II subunit alpha (Homo sapiens) (UniProt P68400); settings: Compound concentration 1000.0 nM
[8] = tested on: Phosphatidylinositol 4,5-bisphosphate 3-kinase catalytic subunit alpha isoform (Homo sapiens), P42336 [M1043I]; settings: Compound concentration 1000.0 nM
[9] = tested on: Phosphatidylinositol 4,5-bisphosphate 3-kinase catalytic subunit alpha isoform (Homo sapiens), P42336 [E542K]; settings: Compound concentration 1000.0 nM
[10] = molecular target: Casein kinase I isoform gamma-2 (Homo sapiens) (UniProt P78368); settings: Compound concentration 1000.0 nM
[11] = molecular target: Vascular endothelial growth factor receptor 3 (Homo sapiens) (UniProt P35916); settings: Compound concentration 1000.0 nM
[12] = tested on: Receptor-type tyrosine-protein kinase FLT3 (Homo sapiens), P36888 [R834Q]; settings: Compound concentration 1000.0 nM
[13] = molecular target: Protein kinase C eta type (Homo sapiens) (UniProt P24723); settings: Compound concentration 1000.0 nM
[14] = molecular target: Tyrosine-protein kinase Yes (Homo sapiens) (UniProt P07947); settings: Compound concentration 1000.0 nM
[15] = molecular target: Protein kinase C delta type (Homo sapiens) (UniProt Q05655); settings: Compound concentration 1000.0 nM
[16] = molecular target: Cyclin-dependent kinase 16 (Homo sapiens) (UniProt Q00536); settings: Compound concentration 1000.0 nM
[17] = tested on: Mast/stem cell growth factor receptor Kit (Homo sapiens), P10721 [V559D,V654A]; settings: Compound concentration 1000.0 nM
[18] = molecular target: Death-associated protein kinase 2 (Homo sapiens) (UniProt Q9UIK4); settings: Compound concentration 1000.0 nM
[19] = molecular target: BMP-2-inducible protein kinase (Homo sapiens) (UniProt Q9NSY1); settings: Compound concentration 1000.0 nM
[20] = molecular target: Ribosomal protein S6 kinase alpha-1 (Homo sapiens) (UniProt Q15418); settings: Compound concentration 1000.0 nM
[21] = molecular target: Dual specificity mitogen-activated protein kinase kinase 4 (Homo sapiens) (UniProt P45985); settings: Compound concentration 1000.0 nM
[22] = molecular target: Serine/threonine-protein kinase DCLK1 (Homo sapiens) (UniProt O15075); settings: Compound concentration 1000.0 nM
[23] = molecular target: Muscarinic acetylcholine receptor M4 (Homo sapiens) (UniProt P08173); settings: Compound concentration 10.0 uM
[24] = tested on: Hepatocyte growth factor receptor (Homo sapiens), P08581 [M1250T]; settings: Compound concentration 1000.0 nM
[25] = molecular target: TGF-beta receptor type-2 (Homo sapiens) (UniProt P37173); settings: Compound concentration 1000.0 nM
[26] = molecular target: Wee1-like protein kinase (Homo sapiens) (UniProt P30291); settings: Compound concentration 1000.0 nM
[27] = molecular target: Serine/threonine-protein kinase TNNI3K (Homo sapiens) (UniProt Q59H18); settings: Compound concentration 1000.0 nM
[28] = molecular target: Serine/threonine-protein kinase 32B (Homo sapiens) (UniProt Q9NY57); settings: Compound concentration 1000.0 nM
[29] = molecular target: Serine/threonine-protein kinase Nek6 (Homo sapiens) (UniProt Q9HC98); settings: Compound concentration 1000.0 nM
[30] = molecular target: Receptor-type tyrosine-protein kinase FLT3 (Homo sapiens) (UniProt P36888); settings: Compound concentration 1000.0 nM
[31] = molecular target: Serine/threonine-protein kinase RIO1 (Homo sapiens) (UniProt Q9BRS2); settings: Compound concentration 1000.0 nM
[32] = molecular target: Myosin light chain kinase, smooth muscle (Homo sapiens) (UniProt Q15746); settings: Compound concentration 1000.0 nM
[33] = molecular target: Receptor tyrosine-protein kinase erbB-4 (Homo sapiens) (UniProt Q15303); settings: Compound concentration 1000.0 nM
[34] = molecular target: Proto-oncogene tyrosine-protein kinase receptor Ret (Homo sapiens) (UniProt P07949); settings: Compound concentration 1000.0 nM
[35] = molecular target: Mast/stem cell growth factor receptor Kit (Homo sapiens) (UniProt P10721); settings: Compound concentration 1000.0 nM
[36] = molecular target: Serine/threonine-protein kinase MRCK alpha (Homo sapiens) (UniProt Q5VT25); settings: Compound concentration 1000.0 nM
[37] = molecular target: Sodium-dependent noradrenaline transporter (Homo sapiens, UniProt P23975); settings: Compound concentration 10.0 uM
[38] = molecular target: Mitogen-activated protein kinase 1 (Homo sapiens) (UniProt P28482); settings: Compound concentration 1000.0 nM
[39] = tested on: Proto-oncogene tyrosine-protein kinase receptor Ret (Homo sapiens), P07949 [V804M]; settings: Compound concentration 1000.0 nM
[40] = molecular target: GABA-A receptor; anion channel (Rattus norvegicus) (UniProt O09028+P15431+P18506+P18508+P19969+P20236+P23574+P23576+P28471+P28473+P30191+P62813+P63079+P63138+Q91ZM7+Q9ES14); settings: Compound concentration 10.0 uM
[41] = molecular target: Fibroblast growth factor receptor 3 (Homo sapiens) (UniProt P22607); settings: Compound concentration 1000.0 nM
[42] = molecular target: Serine/threonine-protein kinase ULK3 (Homo sapiens) (UniProt Q6PHR2); settings: Compound concentration 1000.0 nM
[43] = molecular target: Calcium/calmodulin-dependent protein kinase type II subunit delta (Homo sapiens) (UniProt Q13557); settings: Compound concentration 1000.0 nM
Chain of Calcium/calmodulin-dependent protein kinase type II subunit delta (Homo sapiens) (Q13557 whole entry): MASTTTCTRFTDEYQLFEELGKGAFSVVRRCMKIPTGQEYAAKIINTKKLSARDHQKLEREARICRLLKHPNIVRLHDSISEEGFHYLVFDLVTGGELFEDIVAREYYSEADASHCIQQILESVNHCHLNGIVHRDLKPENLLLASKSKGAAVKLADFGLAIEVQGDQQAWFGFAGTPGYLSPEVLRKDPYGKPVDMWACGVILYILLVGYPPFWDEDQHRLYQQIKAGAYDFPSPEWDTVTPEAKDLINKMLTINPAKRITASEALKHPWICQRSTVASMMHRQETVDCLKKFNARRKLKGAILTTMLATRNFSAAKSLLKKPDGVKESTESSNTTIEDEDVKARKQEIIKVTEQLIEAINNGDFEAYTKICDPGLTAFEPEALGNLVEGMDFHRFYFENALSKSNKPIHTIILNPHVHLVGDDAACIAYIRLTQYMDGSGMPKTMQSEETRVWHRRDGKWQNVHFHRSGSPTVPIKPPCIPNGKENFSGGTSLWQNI

Chain of Phosphatidylinositol 4,5-bisphosphate 3-kinase catalytic subunit alpha isoform (Homo sapiens), P42336 [M1043I] (P42336 whole entry M1043I, canonical isoform): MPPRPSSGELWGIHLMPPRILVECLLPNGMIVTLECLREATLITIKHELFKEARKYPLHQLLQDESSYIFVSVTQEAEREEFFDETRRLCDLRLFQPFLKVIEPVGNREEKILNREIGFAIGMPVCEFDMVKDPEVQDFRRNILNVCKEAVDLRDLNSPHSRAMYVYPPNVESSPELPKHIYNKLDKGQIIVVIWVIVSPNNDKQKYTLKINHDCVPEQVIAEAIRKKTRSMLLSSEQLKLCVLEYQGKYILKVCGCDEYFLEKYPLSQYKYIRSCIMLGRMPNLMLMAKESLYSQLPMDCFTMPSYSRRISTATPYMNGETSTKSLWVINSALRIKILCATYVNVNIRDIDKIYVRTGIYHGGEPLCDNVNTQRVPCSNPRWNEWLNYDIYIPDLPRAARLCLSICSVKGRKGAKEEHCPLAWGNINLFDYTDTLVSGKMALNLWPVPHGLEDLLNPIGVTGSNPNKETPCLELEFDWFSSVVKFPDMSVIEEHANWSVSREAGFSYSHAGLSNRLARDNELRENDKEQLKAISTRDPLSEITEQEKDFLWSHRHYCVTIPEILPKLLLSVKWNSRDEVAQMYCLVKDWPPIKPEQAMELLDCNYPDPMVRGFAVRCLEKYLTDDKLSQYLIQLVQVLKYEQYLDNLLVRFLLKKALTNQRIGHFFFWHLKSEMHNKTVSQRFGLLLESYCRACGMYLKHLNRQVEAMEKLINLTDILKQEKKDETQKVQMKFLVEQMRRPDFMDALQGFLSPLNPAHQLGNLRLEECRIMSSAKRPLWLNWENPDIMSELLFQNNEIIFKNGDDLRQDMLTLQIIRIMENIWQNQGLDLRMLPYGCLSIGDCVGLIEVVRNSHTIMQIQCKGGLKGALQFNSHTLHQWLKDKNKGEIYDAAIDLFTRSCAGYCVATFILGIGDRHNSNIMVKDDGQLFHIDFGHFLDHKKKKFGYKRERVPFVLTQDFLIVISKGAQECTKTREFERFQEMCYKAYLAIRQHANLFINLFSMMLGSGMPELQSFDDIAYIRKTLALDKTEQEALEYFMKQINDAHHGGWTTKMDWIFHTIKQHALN
Chain of Proto-oncogene tyrosine-protein kinase receptor Ret (Homo sapiens), P07949 [V804M] (P07949 whole entry V804M): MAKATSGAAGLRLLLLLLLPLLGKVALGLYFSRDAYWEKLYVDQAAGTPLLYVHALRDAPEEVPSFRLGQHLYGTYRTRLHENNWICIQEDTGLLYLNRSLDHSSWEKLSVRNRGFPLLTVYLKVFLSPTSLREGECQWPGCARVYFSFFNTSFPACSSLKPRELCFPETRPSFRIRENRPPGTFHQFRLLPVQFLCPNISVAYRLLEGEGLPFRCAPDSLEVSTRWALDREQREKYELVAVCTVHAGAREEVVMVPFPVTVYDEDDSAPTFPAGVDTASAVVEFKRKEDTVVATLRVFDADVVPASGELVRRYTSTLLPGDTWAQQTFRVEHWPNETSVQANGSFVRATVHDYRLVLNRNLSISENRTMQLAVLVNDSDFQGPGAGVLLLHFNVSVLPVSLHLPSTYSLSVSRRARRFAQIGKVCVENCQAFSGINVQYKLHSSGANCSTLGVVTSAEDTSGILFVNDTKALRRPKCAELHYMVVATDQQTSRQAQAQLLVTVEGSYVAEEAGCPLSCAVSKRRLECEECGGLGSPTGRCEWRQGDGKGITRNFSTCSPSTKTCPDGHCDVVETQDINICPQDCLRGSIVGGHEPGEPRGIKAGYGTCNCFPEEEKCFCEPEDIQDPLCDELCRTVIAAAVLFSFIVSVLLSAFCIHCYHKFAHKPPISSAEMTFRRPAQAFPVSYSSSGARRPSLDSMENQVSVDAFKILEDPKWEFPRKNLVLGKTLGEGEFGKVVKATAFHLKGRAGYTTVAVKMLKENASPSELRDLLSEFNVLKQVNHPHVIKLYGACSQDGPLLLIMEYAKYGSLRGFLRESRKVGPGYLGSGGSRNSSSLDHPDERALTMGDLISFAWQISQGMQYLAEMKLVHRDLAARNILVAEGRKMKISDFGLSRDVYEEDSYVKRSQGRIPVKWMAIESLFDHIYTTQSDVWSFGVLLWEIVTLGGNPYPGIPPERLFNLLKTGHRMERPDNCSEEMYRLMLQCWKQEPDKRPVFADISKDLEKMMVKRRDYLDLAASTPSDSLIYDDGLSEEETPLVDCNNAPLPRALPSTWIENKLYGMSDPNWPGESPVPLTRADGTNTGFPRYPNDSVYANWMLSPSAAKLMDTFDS
Chain of Sodium-dependent noradrenaline transporter (P23975 whole entry): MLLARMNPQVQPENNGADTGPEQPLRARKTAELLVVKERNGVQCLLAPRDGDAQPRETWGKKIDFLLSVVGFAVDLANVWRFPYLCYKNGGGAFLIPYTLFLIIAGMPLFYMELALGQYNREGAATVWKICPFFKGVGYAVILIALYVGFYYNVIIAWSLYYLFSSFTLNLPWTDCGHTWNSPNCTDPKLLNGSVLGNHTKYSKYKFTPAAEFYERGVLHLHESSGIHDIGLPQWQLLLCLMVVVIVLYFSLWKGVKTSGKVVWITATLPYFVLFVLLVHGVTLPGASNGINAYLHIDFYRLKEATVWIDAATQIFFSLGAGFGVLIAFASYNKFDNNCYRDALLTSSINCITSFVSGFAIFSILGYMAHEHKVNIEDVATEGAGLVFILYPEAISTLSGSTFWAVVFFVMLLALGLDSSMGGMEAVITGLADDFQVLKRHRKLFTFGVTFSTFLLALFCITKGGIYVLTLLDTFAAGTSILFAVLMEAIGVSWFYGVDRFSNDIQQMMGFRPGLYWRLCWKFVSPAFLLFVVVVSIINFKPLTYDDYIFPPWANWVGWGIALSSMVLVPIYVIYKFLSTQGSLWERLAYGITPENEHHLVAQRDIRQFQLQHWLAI
Chain of Protein kinase C delta type (Homo sapiens) (Q05655 whole entry, looked up): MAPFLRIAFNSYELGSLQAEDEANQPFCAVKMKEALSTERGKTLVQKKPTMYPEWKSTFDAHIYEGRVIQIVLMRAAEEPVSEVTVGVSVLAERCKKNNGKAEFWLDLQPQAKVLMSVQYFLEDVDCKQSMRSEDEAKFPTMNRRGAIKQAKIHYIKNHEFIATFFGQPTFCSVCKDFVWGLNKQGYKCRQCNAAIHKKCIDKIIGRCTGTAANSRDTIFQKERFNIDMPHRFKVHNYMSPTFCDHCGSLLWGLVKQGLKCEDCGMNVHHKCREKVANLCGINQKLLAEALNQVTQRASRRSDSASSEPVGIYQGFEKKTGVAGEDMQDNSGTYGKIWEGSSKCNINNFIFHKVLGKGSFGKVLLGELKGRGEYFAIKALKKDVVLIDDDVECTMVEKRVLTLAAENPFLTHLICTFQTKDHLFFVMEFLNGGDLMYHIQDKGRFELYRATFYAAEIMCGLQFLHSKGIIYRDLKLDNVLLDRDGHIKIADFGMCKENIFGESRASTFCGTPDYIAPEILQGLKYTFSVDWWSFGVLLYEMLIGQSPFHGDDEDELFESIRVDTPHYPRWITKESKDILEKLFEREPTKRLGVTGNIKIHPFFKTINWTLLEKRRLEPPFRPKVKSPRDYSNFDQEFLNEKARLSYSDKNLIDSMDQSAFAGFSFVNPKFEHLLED
Chain of Serine/threonine-protein kinase ULK3 (Homo sapiens) (Q6PHR2 whole entry): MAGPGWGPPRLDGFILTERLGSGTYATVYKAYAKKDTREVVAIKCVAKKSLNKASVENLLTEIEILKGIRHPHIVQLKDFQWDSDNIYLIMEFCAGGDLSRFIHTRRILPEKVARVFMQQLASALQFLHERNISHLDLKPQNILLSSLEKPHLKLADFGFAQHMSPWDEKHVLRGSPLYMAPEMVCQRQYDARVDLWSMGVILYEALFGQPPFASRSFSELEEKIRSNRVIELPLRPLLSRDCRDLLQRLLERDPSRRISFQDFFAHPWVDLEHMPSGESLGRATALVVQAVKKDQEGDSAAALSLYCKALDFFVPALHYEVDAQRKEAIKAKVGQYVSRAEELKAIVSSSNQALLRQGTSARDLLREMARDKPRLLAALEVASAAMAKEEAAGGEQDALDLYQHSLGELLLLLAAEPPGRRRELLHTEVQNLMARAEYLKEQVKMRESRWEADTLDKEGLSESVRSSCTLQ
Chain of Dual specificity mitogen-activated protein kinase kinase 4 (Homo sapiens) (P45985 whole entry): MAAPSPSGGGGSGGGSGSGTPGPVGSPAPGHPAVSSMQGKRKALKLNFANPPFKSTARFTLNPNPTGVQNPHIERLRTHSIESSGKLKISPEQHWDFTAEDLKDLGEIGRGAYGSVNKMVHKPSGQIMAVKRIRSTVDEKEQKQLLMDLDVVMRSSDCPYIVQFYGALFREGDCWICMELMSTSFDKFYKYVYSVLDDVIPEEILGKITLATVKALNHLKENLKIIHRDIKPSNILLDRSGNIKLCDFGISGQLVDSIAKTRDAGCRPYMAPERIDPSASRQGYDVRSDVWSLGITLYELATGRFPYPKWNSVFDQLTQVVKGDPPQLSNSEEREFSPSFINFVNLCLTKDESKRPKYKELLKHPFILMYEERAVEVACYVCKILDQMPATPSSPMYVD

In the case of `COc1cc(-c2cn([C@H]3CCc4c(F)cccc4N(CC(F)(F)F)C3=O)nn2)ccc1-n1cnc(C)c1`, the residual activity [1] is reported as 100%, the residual activity [2] is reported as 100% and the residual activity [3] is reported as 100%. For the same molecule, the residual activity [4] was 100%, the residual activity [5] was 100% and the residual activity [6] was 100%. For the same molecule, the residual activity [7] was 100%, the residual activity [8] was 100% and the residual activity [9] was 88%. The residual activity [10] was 100%, the residual activity [11] was 100% and the residual activity [12] was 100%. For the same molecule, the residual activity [13] was 100%, the residual activity [14] was 100% and the residual activity [15] was 100%. For the same molecule, the residual activity [16] was 82%, the residual activity [17] was 97% and the residual activity [18] was 100%. The residual activity [19] was 100%, the residual activity [20] was 100% and the residual activity [21] was 93%. It also gave a residual activity [22] of 100%, an inhibition [23] of 26.2% and a residual activity [24] of 100%. For the same molecule, the residual activity [25] was 100%, the residual activity [26] was 79% and the residual activity [27] was 100%. It also gave a residual activity [28] of 100%, a residual activity [29] of 100% and a residual activity [30] of 100%. It also gave a residual activity [31] of 96%, a residual activity [32] of 81% and a residual activity [33] of 100%. For the same molecule, the residual activity [34] was 84%, the residual activity [35] was 100% and the residual activity [36] was 100%. The inhibition [37] was 87.1%, the residual activity [38] was 100% and the residual activity [39] was 88%. For the same molecule, the inhibition [40] was 28.6%, the residual activity [41] was 100% and the residual activity [42] was 63%. It also gave a residual activity [43] of 100%.
For `COc1cc(-c2cn([C@H]3CCc4ccccc4N(CC(F)(F)F)C3=O)nn2)ccc1-n1ccc(C)n1`, the residual activity [1] was 99%, the residual activity [2] was 93% and the residual activity [3] was 88%. For the same molecule, the residual activity [4] was 100%, the residual activity [5] was 100% and the residual activity [6] was 100%. It also gave a residual activity [7] of 81%, a residual activity [8] of 100% and a residual activity [9] of 82%. For the same molecule, the residual activity [10] was 100%, the residual activity [11] was 100% and the residual activity [12] was 100%. The residual activity [13] was 73%, the residual activity [14] was 100% and the residual activity [15] was 98%. For the same molecule, the residual activity [16] was 81%, the residual activity [17] was 100% and the residual activity [18] was 100%. It also gave a residual activity [19] of 100%, a residual activity [20] of 95% and a residual activity [21] of 100%. It also gave a residual activity [22] of 100%, an inhibition [23] of 6.94% and a residual activity [24] of 100%. The residual activity [25] was 100%, the residual activity [26] was 100% and the residual activity [27] was 100%. It also gave a residual activity [28] of 85%, a residual activity [29] of 100% and a residual activity [30] of 89%. For the same molecule, the residual activity [31] was 100%, the residual activity [32] was 80% and the residual activity [33] was 100%. The residual activity [34] was 91%, the residual activity [35] was 100% and the residual activity [36] was 100%. The inhibition [37] was 49.4%, the residual activity [38] was 100% and the residual activity [39] was 100%. For the same molecule, the inhibition [40] was 0.92%, the residual activity [41] was 100% and the residual activity [42] was 61%. The residual activity [43] was 100%.
